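Dose response: 5 concentrations. Exposure: 48 h. Format: 96-well plates. Endpoint: linear interpolation; highest concentration if not reached. Here, GI50 denotes the concentration required for 50% inhibition of growth. TGI: total growth inhibition.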
Experiments:
Assay in all cases: NCI anticancer screen, dose series, 48 h
786-0 renal = tested on: 786-0 renal
A549 NSCLC = tested on: A549 NSCLC
ACHN renal = tested on: ACHN renal
CAKI-1 renal = tested on: CAKI-1 renal
COLO 205 colon = tested on: COLO 205 colon
DLD-1 colon = tested on: DLD-1 colon
DMS 114 small cell lung = tested on: DMS 114 small cell lung
DMS 273 small cell lung = tested on: DMS 273 small cell lung
EKVX NSCLC = tested on: EKVX NSCLC
HCC-2998 colon = tested on: HCC-2998 colon
HCT-116 colon = tested on: HCT-116 colon
HCT-15 colon = tested on: HCT-15 colon
HL-60(TB) leukemia = tested on: HL-60(TB) leukemia
HOP-18 NSCLC = tested on: HOP-18 NSCLC
HOP-62 NSCLC = tested on: HOP-62 NSCLC
HT29 colon = tested on: HT29 colon
IGROV1 ovarian = tested on: IGROV1 ovarian
K-562 leukemia = tested on: K-562 leukemia
KM20L2 colon = tested on: KM20L2 colon
LOX IMVI melanoma = tested on: LOX IMVI melanoma
LXFL 529 NSCLC = tested on: LXFL 529 NSCLC
M14 melanoma = tested on: M14 melanoma
M19-MEL melanoma = tested on: M19-MEL melanoma
MALME-3M melanoma = tested on: MALME-3M melanoma
MOLT-4 leukemia = tested on: MOLT-4 leukemia
NCI-H226 lung = tested on: NCI-H226 lung
NCI-H23 lung = tested on: NCI-H23 lung
NCI-H460 lung = tested on: NCI-H460 lung
NCI-H522 lung = tested on: NCI-H522 lung
OVCAR-3 ovarian = tested on: OVCAR-3 ovarian
OVCAR-4 ovarian = tested on: OVCAR-4 ovarian
OVCAR-5 ovarian = tested on: OVCAR-5 ovarian
OVCAR-8 ovarian = tested on: OVCAR-8 ovarian
RPMI-8226 leukemia = tested on: RPMI-8226 leukemia
RXF 393 renal = tested on: RXF 393 renal
SF-268 CNS = tested on: SF-268 CNS
SF-295 CNS = tested on: SF-295 CNS
SK-MEL-2 melanoma = tested on: SK-MEL-2 melanoma
SK-MEL-28 melanoma = tested on: SK-MEL-28 melanoma
SK-MEL-5 melanoma = tested on: SK-MEL-5 melanoma
SK-OV-3 ovarian = tested on: SK-OV-3 ovarian
SN12C renal = tested on: SN12C renal
SNB-19 CNS = tested on: SNB-19 CNS
SNB-75 CNS = tested on: SNB-75 CNS
SNB-78 CNS = tested on: SNB-78 CNS
SR leukemia = tested on: SR leukemia
SW-620 colon = tested on: SW-620 colon
TK-10 renal = tested on: TK-10 renal
U251 CNS = tested on: U251 CNS
UACC-257 melanoma = tested on: UACC-257 melanoma
UACC-62 melanoma = tested on: UACC-62 melanoma
UO-31 renal = tested on: UO-31 renal
XF 498 CNS = tested on: XF 498 CNS
CCRF-CEM leukemia = tested on: CCRF-CEM leukemia
HOP-92 NSCLC = tested on: HOP-92 NSCLC
KM12 colon = tested on: KM12 colon
RXF-631 renal = tested on: RXF-631 renal
SF-539 CNS = tested on: SF-539 CNS

`O=C1C(Cl)C(c2cccc(O)c2)N1n1cnc2ccccc2c1=O` (configuration not stated) was tested, and the TGI (786-0 renal) was over 100 µM, the TGI (A549 NSCLC) was over 100 µM and the TGI (ACHN renal) was over 100 µM. It also gave a TGI (CAKI-1 renal) of over 100 µM, a TGI (COLO 205 colon) of over 100 µM and a TGI (DLD-1 colon) of over 100 µM. It also gave a TGI (DMS 114 small cell lung) of over 100 µM, a TGI (DMS 273 small cell lung) of over 100 µM and a TGI (EKVX NSCLC) of over 100 µM. The TGI (HCC-2998 colon) was over 100 µM, the TGI (HCT-116 colon) was over 100 µM and the TGI (HCT-15 colon) was over 100 µM. For the same molecule, the TGI (HL-60(TB) leukemia) was over 100 µM, the TGI (HOP-18 NSCLC) was over 100 µM and the TGI (HOP-62 NSCLC) was over 100 µM. For the same molecule, the TGI (HT29 colon) was over 100 µM, the TGI (IGROV1 ovarian) was over 100 µM and the TGI (K-562 leukemia) was over 100 µM. The TGI (KM20L2 colon) was over 100 µM, the TGI (LOX IMVI melanoma) was over 100 µM and the TGI (LXFL 529 NSCLC) was over 100 µM. The TGI (M14 melanoma) was over 100 µM, the TGI (M19-MEL melanoma) was over 100 µM and the TGI (MALME-3M melanoma) was over 100 µM. It also gave a TGI (MOLT-4 leukemia) of over 100 µM, a TGI (NCI-H226 lung) of over 100 µM and a TGI (NCI-H23 lung) of over 100 µM. For the same molecule, the TGI (NCI-H460 lung) was over 100 µM, the TGI (NCI-H522 lung) was over 100 µM and the TGI (OVCAR-3 ovarian) was over 100 µM. It also gave a TGI (OVCAR-4 ovarian) of over 100 µM, a TGI (OVCAR-5 ovarian) of over 100 µM and a TGI (OVCAR-8 ovarian) of over 100 µM. It also gave a TGI (RPMI-8226 leukemia) of over 100 µM, a TGI (RXF 393 renal) of over 100 µM and a TGI (SF-268 CNS) of over 100 µM. For the same molecule, the TGI (SF-295 CNS) was over 100 µM, the TGI (SK-MEL-2 melanoma) was over 100 µM and the TGI (SK-MEL-28 melanoma) was over 100 µM. The TGI (SK-MEL-5 melanoma) was over 100 µM, the TGI (SK-OV-3 ovarian) was over 100 µM and the TGI (SN12C renal) was over 100 µM. It also gave a TGI (SNB-19 CNS) of over 100 µM, a TGI (SNB-75 CNS) of over 100 µM and a TGI (SNB-78 CNS) of over 100 µM. The TGI (SR leukemia) was over 100 µM, the TGI (SW-620 colon) was over 100 µM and the TGI (TK-10 renal) was over 100 µM. It also gave a TGI (U251 CNS) of over 100 µM, a TGI (UACC-257 melanoma) of over 100 µM and a TGI (UACC-62 melanoma) of over 100 µM. For the same molecule, the TGI (UO-31 renal) was over 100 µM and the TGI (XF 498 CNS) was over 100 µM.
`COc1ccc2[nH]c(-c3ccccn3)cc(=O)c2c1` gave a TGI (786-0 renal) of over 100 µM, a TGI (A549 NSCLC) of over 100 µM and a TGI (ACHN renal) of over 100 µM. It also gave a TGI (CCRF-CEM leukemia) of over 100 µM, a TGI (COLO 205 colon) of over 100 µM and a TGI (DLD-1 colon) of over 100 µM. The GI50 (DMS 114 small cell lung) was 22.6 µM, the TGI (DMS 114 small cell lung) was 71.4 µM and the TGI (EKVX NSCLC) was over 100 µM. It also gave a GI50 (HCT-116 colon) of 33.6 µM, a TGI (HCT-116 colon) of over 100 µM and a TGI (HL-60(TB) leukemia) of over 100 µM. For the same molecule, the TGI (HOP-18 NSCLC) was over 100 µM, the TGI (HOP-62 NSCLC) was over 100 µM and the TGI (HOP-92 NSCLC) was over 100 µM. For the same molecule, the TGI (HT29 colon) was over 100 µM, the TGI (IGROV1 ovarian) was over 100 µM and the TGI (K-562 leukemia) was over 100 µM. The TGI (KM12 colon) was over 100 µM, the GI50 (KM20L2 colon) was 35.1 µM and the TGI (KM20L2 colon) was over 100 µM. It also gave a TGI (LOX IMVI melanoma) of over 100 µM, a TGI (LXFL 529 NSCLC) of over 100 µM and a TGI (M14 melanoma) of 90.9 µM. For the same molecule, the TGI (M19-MEL melanoma) was over 100 µM, the TGI (MALME-3M melanoma) was 75.6 µM and the TGI (MOLT-4 leukemia) was over 100 µM. The GI50 (NCI-H226 lung) was 36.6 µM, the TGI (NCI-H226 lung) was over 100 µM and the TGI (NCI-H23 lung) was over 100 µM. It also gave a TGI (NCI-H460 lung) of over 100 µM, a TGI (NCI-H522 lung) of 65.8 µM and a GI50 (OVCAR-3 ovarian) of over 100 µM. For the same molecule, the TGI (OVCAR-3 ovarian) was over 100 µM, the TGI (OVCAR-4 ovarian) was over 100 µM and the TGI (OVCAR-5 ovarian) was over 100 µM. The TGI (OVCAR-8 ovarian) was over 100 µM, the TGI (RPMI-8226 leukemia) was over 100 µM and the GI50 (RXF 393 renal) was 2.49 µM. For the same molecule, the TGI (RXF 393 renal) was 33.8 µM, the TGI (RXF-631 renal) was over 100 µM and the GI50 (SF-268 CNS) was 24.2 µM. It also gave a TGI (SF-268 CNS) of 65.8 µM, a GI50 (SF-295 CNS) of 51.5 µM and a TGI (SF-295 CNS) of over 100 µM. For the same molecule, the TGI (SF-539 CNS) was 91.9 µM, the TGI (SK-MEL-28 melanoma) was over 100 µM and the GI50 (SK-MEL-5 melanoma) was 28.5 µM. It also gave a TGI (SK-MEL-5 melanoma) of over 100 µM, a TGI (SK-OV-3 ovarian) of over 100 µM and a TGI (SN12C renal) of over 100 µM. For the same molecule, the TGI (SNB-19 CNS) was over 100 µM, the TGI (SNB-75 CNS) was 88 µM and the TGI (SNB-78 CNS) was over 100 µM. For the same molecule, the TGI (SW-620 colon) was over 100 µM, the TGI (TK-10 renal) was over 100 µM and the TGI (UACC-257 melanoma) was over 100 µM. It also gave a TGI (UACC-62 melanoma) of over 100 µM and a TGI (UO-31 renal) of over 100 µM.

Source: PubChem BioAssay (NCI)
